{"source": "patent US9725490B2", "about": "“ERAP1-derived peptide and use thereof” (TOKUSHIMA UNIVERSITY, priority 2011, dated 2017)", "key": {"[1]": {"system": "estrogen-dependent gene expression in MCF-7 cells", "test": "Microarray transcriptome analysis, MCF-7", "type": "cell-based, human", "conditions": "for Fold change: E2 alone/E2 + peptide", "protocol": "MCF-7 cells were treated with 10 μM ERAP1-peptide (Peptide) and the ERAP1-scramble peptide (scrPeptide). Then, immediately, the cells were stimulated with 10 nM E2 for 1 hour. Subsequently, the obtained cell lysate solution was digested with trypsin and subjected to 2DICAL. […] MCF-7 cells were treated with 10 μM ERAP1-peptide. Then, immediately, the cells were stimulated with 10 nM E2 for 5, 10 and 15 hours. Then, RNA extraction and then Cy3-cRNA synthesis were performed, and the Cy3-cRNA was subjected to the microarray. The data were statistically analyzed by GeneSpring software, and the ratio to the value at 0 hour was calculated. **P<0.01.\nMCF-7 cells were treated with 10 μM ERAP1-peptide. Then, immediately the cells were stimulated with 10 nM E2. Then, RNA extraction was performed. Cy3 labeled cRNA was synthesized with Low Input Quick Amp Labeling Kit (Agilent Technologies, Loveland, Colo., USA) and hybridized with a custom microarray at 65° C. for 17 hours. The microarray was washed. Then, the product hybridized was measured with a microarray scanner (Agilent). The results thereof were digitized with Future Extraction software (Agilent). The data were statistically analyzed with GeneSpring software (Agilent), and the ratio to the value at 0 hour was calculated."}, "[2]": {"system": "ERα complex with PHB2/REA, NcoR, HDAC1, SRC-1", "test": "Chromatin remodeling complex, immunoprecipitation of nuclear fraction", "type": "cell-based, human", "protocol": "KPL-3C cells temporarily transfected with an ERE-luciferase reporter vector were treated with the ERAP1-peptide in the concentrations shown in the figure. Then, immediately, the cells were stimulated with 10 nM E2 for 24 hours. TAM indicates the tamoxifen treatment. […] KPL-3C cells were treated for 24 hours with the ERAP1-peptide and/or E2. Then, the nuclear fraction was immunoprecipitated with anti-ERα antibody or an anti-PHB2 antibody.\nFIG. 4-4 is a diagram illustrating that the ERAP1-peptide promotes nuclear translocation of PHB2. […] MCF-7 cells were treated with the ERAP1-peptide and/or 10 nM E2 for 24 hours. Then, the nuclear fraction was immunoprecipitated with anti-ERα antibody or an anti-PHB2 antibody. […] MCF-7 cells were treated with the ERAP1-peptide and/or E2 for 24 hours. Then, the cell lysate was immunoprecipitated with anti-PHB2 antibody. Subsequently, the HDAC activity in the immunoprecipitate was measured with a commercially available kit. The nuclear extract from the HeLa cells and PBS were used as a positive control (P) and as negative control (N), respectively.\nAs described in the item of “Western blotting analysis”, the cells were lysed with a 0.1% NP-40 lysis buffer. The cell lysate was precleaned using normal IgG and rec-Protein G Sepharose 4B (Zymed, San Francisco, Calif., USA) at 4° C. for 3 hours. […]"}}, "data": [{"smiles": "CSCC[C@H](NC(=O)[C@H](CCC(N)=O)NC(=O)[C@H](CCCNC(=N)N)NC(=O)[C@H](CCCNC(=N)N)NC(=O)[C@H](CCCNC(=N)N)NC(=O)[C@H](CCCNC(=N)N)NC(=O)[C@H](CCCNC(=N)N)NC(=O)[C@H](CCCNC(=N)N)NC(=O)[C@H](CCCNC(=N)N)NC(=O)[C@H](CCCNC(=N)N)NC(=O)[C@H](CCCNC(=N)N)NC(=O)[C@H](CCCNC(=N)N)NC(=O)[C@@H](N)CCCNC(=N)N)C(=O)N[C@@H](CC(C)C)C(=O)N[C@@H](CO)C(=O)N[C@@H](CC(=O)O)C(=O)N[C@@H](CC(C)C)C(=O)N[C@H](C(=O)N[C@@H](CC(C)C)C(=O)N[C@@H](CCC(N)=O)C(=O)N[C@@H](CC(C)C)C(=O)N[C@@H](CCCNC(=N)N)C(=O)N[C@@H](CCC(N)=O)C(=O)N[C@@H](CCCNC(=N)N)C(=O)O)[C@@H](C)O", "note": "[ERAP1-peptide]", "values": [{"measurement": "change of mRNA expressions", "setting": "[1]; 10 μM, 10 nM E2, versus E2", "value": "decreased significantly and genome-widely"}, {"measurement": "Fold change", "setting": "[1]; gene ADCY1", "value": 5.92}, {"measurement": "Fold change", "setting": "[1]; gene AKR1C1", "value": 7.79}, {"measurement": "Fold change", "setting": "[1]; gene AKR1C3", "value": 6.37}, {"measurement": "Fold change", "setting": "[1]; gene AKR1C4", "value": 6.00}, {"measurement": "Fold change", "setting": "[1]; gene ANKS6", "value": 9.00}, {"measurement": "Fold change", "setting": "[1]; gene ARHGAP36", "value": 7.08}, {"measurement": "Fold change", "setting": "[1]; gene BASP1", "value": 8.01}, {"measurement": "Fold change", "setting": "[1]; gene BCAS3", "value": 5.92}, {"measurement": "Fold change", "setting": "[1]; gene BMP5", "value": 7.72}, {"measurement": "Fold change", "setting": "[1]; gene BMP7", "value": 8.40}, {"measurement": "Fold change", "setting": "[1]; gene BTG3", "value": 9.06}, {"measurement": "Fold change", "setting": "[1]; gene C1orf59", "value": 8.43}, {"measurement": "Fold change", "setting": "[1]; gene C6orf150", "value": 5.95}, {"measurement": "Fold change", "setting": "[1]; gene C13orf18", "value": 5.79}, {"measurement": "Fold change", "setting": "[1]; gene CA2", "value": 9.87}, {"measurement": "Fold change", "setting": "[1]; gene CALB2", "value": 6.05}, {"measurement": "Fold change", "setting": "[1]; gene CALHM2", "value": 8.63}, {"measurement": "Fold change", "setting": "[1]; gene CALML5", "value": 6.39}, {"measurement": "Fold change", "setting": "[1]; gene CAV1", "value": 7.44}, {"measurement": "Fold change", "setting": "[1]; gene CAV2", "value": 6.63}, {"measurement": "Fold change", "setting": "[1]; gene CCDC83", "value": 6.76}, {"measurement": "Fold change", "setting": "[1]; gene CEACAM5", "value": 6.84}, {"measurement": "Fold change", "setting": "[1]; gene CMTM3", "value": 7.06}, {"measurement": "Fold change", "setting": "[1]; gene CNKSR3", "value": 6.27}, {"measurement": "Fold change", "setting": "[1]; gene CTNND2", "value": 6.83}, {"measurement": "Fold change", "setting": "[1]; gene CXCR7", "value": 10.15}, {"measurement": "Fold change", "setting": "[1]; gene CYBA", "value": 9.51}, {"measurement": "Fold change", "setting": "[1]; gene DCLK1", "value": 7.84}, {"measurement": "Fold change", "setting": "[1]; gene DDX43", "value": 8.53}, {"measurement": "Fold change", "setting": "[1]; gene DPYSL5", "value": 5.76}, {"measurement": "Fold change", "setting": "[1]; gene ECHDC1", "value": 7.73}, {"measurement": "Fold change", "setting": "[1]; gene ELOVL2", "value": 7.14}, {"measurement": "Fold change", "setting": "[1]; gene FABP5", "value": 6.38}, {"measurement": "Fold change", "setting": "[1]; gene FAM189A2", "value": 6.33}, {"measurement": "Fold change", "setting": "[1]; gene FZD6", "value": 7.54}, {"measurement": "Fold change", "setting": "[1]; gene GPER", "value": 7.51}, {"measurement": "Fold change", "setting": "[1]; gene GSTT1", "value": 7.93}, {"measurement": "Fold change", "setting": "[1]; gene HAR1B", "value": 7.11}, {"measurement": "Fold change", "setting": "[1]; gene HMCN1", "value": 7.54}, {"measurement": "Fold change", "setting": "[1]; gene HPDL", "value": 7.68}, {"measurement": "Fold change", "setting": "[1]; gene KCNJ3", "value": 8.31}, {"measurement": "Fold change", "setting": "[1]; gene KCNJ8", "value": 6.44}, {"measurement": "Fold change", "setting": "[1]; gene KCNQ1OT1", "value": 6.60}, {"measurement": "Fold change", "setting": "[1]; gene KIF1A", "value": 7.12}, {"measurement": "Fold change", "setting": "[1]; gene KLK6", "value": 5.98}, {"measurement": "Fold change", "setting": "[1]; gene KLK11", "value": 8.08}, {"measurement": "Fold change", "setting": "[1]; gene LOC389332", "value": 6.52}, {"measurement": "Fold change", "setting": "[1]; gene LOC654433", "value": 6.72}, {"measurement": "Fold change", "setting": "[1]; gene LOC732272", "value": 7.09}, {"measurement": "Fold change", "setting": "[1]; gene LOC100508679", "value": 9.85}, {"measurement": "Fold change", "setting": "[1]; gene LPIN2", "value": 6.27}, {"measurement": "Fold change", "setting": "[1]; gene LRRC10B", "value": 7.17}, {"measurement": "Fold change", "setting": "[1]; gene LXN", "value": 11.09}, {"measurement": "Fold change", "setting": "[1]; gene LYPD1", "value": 6.66}, {"measurement": "Fold change", "setting": "[1]; gene MAGED4B", "value": 6.80}, {"measurement": "Fold change", "setting": "[1]; gene MALL", "value": 6.05}, {"measurement": "Fold change", "setting": "[1]; gene MARCKS", "value": 6.99}, {"measurement": "Fold change", "setting": "[1]; gene ME1", "value": 6.91}, {"measurement": "Fold change", "setting": "[1]; gene MEST", "value": 8.84}, {"measurement": "Fold change", "setting": "[1]; gene MUCL1", "value": 6.13}, {"measurement": "Fold change", "setting": "[1]; gene NCRNA00052", "value": 7.27}, {"measurement": "Fold change", "setting": "[1]; gene NUP210L", "value": 7.84}, {"measurement": "Fold change", "setting": "[1]; gene OOEP", "value": 6.57}, {"measurement": "Fold change", "setting": "[1]; gene PCDH10", "value": 5.78}, {"measurement": "Fold change", "setting": "[1]; gene PDGFRL", "value": 5.77}, {"measurement": "Fold change", "setting": "[1]; gene PM20D2", "value": 6.56}, {"measurement": "Fold change", "setting": "[1]; gene PMP22", "value": 5.93}, {"measurement": "Fold change", "setting": "[1]; gene POTEB", "value": 7.70}, {"measurement": "Fold change", "setting": "[1]; gene POTED", "value": 6.82}, {"measurement": "Fold change", "setting": "[1]; gene PPARG", "value": 7.30}, {"measurement": "Fold change", "setting": "[1]; gene RAMP1", "value": 5.82}, {"measurement": "Fold change", "setting": "[1]; gene RAMP3", "value": 7.25}, {"measurement": "Fold change", "setting": "[1]; gene RGS22", "value": 7.22}, {"measurement": "Fold change", "setting": "[1]; gene RP86KA3", "value": 7.84}, {"measurement": "Fold change", "setting": "[1]; gene S100A14", "value": 6.73}, {"measurement": "Fold change", "setting": "[1]; gene SALL4", "value": 6.60}, {"measurement": "Fold change", "setting": "[1]; gene SDR42E1", "value": 8.01}, {"measurement": "Fold change", "setting": "[1]; gene SERPINA5", "value": 5.87}, {"measurement": "Fold change", "setting": "[1]; gene SLC6A14", "value": 8.73}, {"measurement": "Fold change", "setting": "[1]; gene SLC7A2", "value": 8.32}, {"measurement": "Fold change", "setting": "[1]; gene SLC27A6", "value": 8.00}, {"measurement": "Fold change", "setting": "[1]; gene SNX7", "value": 7.48}, {"measurement": "Fold change", "setting": "[1]; gene SOX3", "value": 6.52}, {"measurement": "Fold change", "setting": "[1]; gene SPANXA1", "value": 6.68}, {"measurement": "Fold change", "setting": "[1]; gene SPANXB2", "value": 6.55}, {"measurement": "Fold change", "setting": "[1]; gene ST8SIA4", "value": 6.99}, {"measurement": "Fold change", "setting": "[1]; gene TFPI2", "value": 6.82}, {"measurement": "Fold change", "setting": "[1]; gene THBD", "value": 5.97}, {"measurement": "Fold change", "setting": "[1]; gene TLR2", "value": 5.74}, {"measurement": "Fold change", "setting": "[1]; gene TMEM26", "value": 6.66}, {"measurement": "Fold change", "setting": "[1]; gene TMEM64", "value": 6.46}, {"measurement": "Fold change", "setting": "[1]; gene TMEM150C", "value": 7.57}, {"measurement": "Fold change", "setting": "[1]; gene TOX2", "value": 6.29}, {"measurement": "Fold change", "setting": "[1]; gene TPM4", "value": 7.60}, {"measurement": "Fold change", "setting": "[1]; gene TSPYL5", "value": 9.50}, {"measurement": "Fold change", "setting": "[1]; gene UGT1A6", "value": 5.78}, {"measurement": "Fold change", "setting": "[1]; gene UGT1A8", "value": 6.60}, {"measurement": "Fold change", "setting": "[1]; gene WISP2", "value": 6.73}, {"measurement": "Fold change", "setting": "[1]; gene XIST", "value": 8.53}, {"measurement": "Fold change", "setting": "[1]; gene ZNF618", "value": 6.39}, {"measurement": "interaction of ERα with transcription factors", "setting": "[2]; KPL-3C cells", "value": "ERα recruited NcoR and HDAC1 to form a complex"}, {"measurement": "interaction of ERα with transcription factors", "setting": "[2]; MCF-7 cells", "value": "the binding of ERα and SRC-1 decreased, whereas ERα interacted with PHB2/REA, and further recruited NcoR and HDAC1 to form a complex"}]}]}
